Data reported in US20230123334A1, “AMINO LIPID COMPOUND, PREPARATION METHOD THEREFOR, AND APPLICATION THEREOF” (SHENZHEN SHENXIN BIOTECHNOLOGY CO., LTD., priority 2020, published 2023).

System: Hela cells
Assay: Transfection of Hela cell line, DNA vectors
Type: cell-based
Details: 75 ng plasmid DNA, GFP cells / total cells
Procedure, shortened: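 Amino lipid/DOPE liposomes in sodium acetate pH 5.6 were complexed with 75 ng psin-EGFP-IRES-Puro plasmid for 30 min at room temperature, then mixed with 3-5×10^4 Hela cells in DMEM/10% FBS at 37° C. Hoechst stain after 20-24 h, imaging after a further 20-24 h. Efficiency = GFP-positive cells / total nuclei.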

SMILES | Absolute DNA transfection efficiency in Hela cells [%]
CCCCCCCCCCCNc1nc(NCCCN2CCN(C)CC2)nc(SCCCCCCCCC)n1 [Compound S9N11D9] | 24.3
CCCCCCCCCCCNc1nc(NCC2CCN(C)CC2)nc(SCCCCCCCCC)n1 [Compound S9N11D10] | 21.2
CCCCCCCCCCCCNc1nc(NCCN2CCCC2)nc(SCCCCCCCCC)n1 [Compound S9N12D3] | 23.7
CCCCCCCCCCCCNc1nc(NCCN2CCN(C)CC2)nc(SCCCCCCCCC)n1 [Compound S9N12D5] | 24.1
CCCCCCCCCCCCNc1nc(NCCCN(C)C)nc(SCCCCCCCCC)n1 [Compound S9N12D6] | 35.5

System: Hela cells
Assay: Transfection of Hela cell line, mRNA vectors
Type: cell-based
Details: 50 ng EGFP mRNA per well
Procedure, shortened: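 HeLa cells in DMEM with 10% FBS transfected with 50 ng EGFP mRNA per well. Readout is percentage of GFP-positive cells among total cells counted by Hoechst nuclear stain; Lipofectamine2000 served as positive control.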

SMILES | Absolute mRNA transfection efficiency in Hela cells [%]
CCCCCCCCCCCNc1nc(NCCCN2CCN(C)CC2)nc(SCCCCCCCCC)n1 [Compound S9N11D9] | 24.6
CCCCCCCCCCCNc1nc(NCC2CCN(C)CC2)nc(SCCCCCCCCC)n1 [Compound S9N11D10] | 21.3
CCCCCCCCCCCCNc1nc(NCCN2CCCC2)nc(SCCCCCCCCC)n1 [Compound S9N12D3] | 23.7
CCCCCCCCCCCCNc1nc(NCCN2CCN(C)CC2)nc(SCCCCCCCCC)n1 [Compound S9N12D5] | 24.1
CCCCCCCCCCCCNc1nc(NCCCN(C)C)nc(SCCCCCCCCC)n1 [Compound S9N12D6] | 35.5

System: MCF7 cells
Assay: Transfection of MCF7 cell line, DNA vectors
Type: cell-based
Set-up: concentration or dose not given beside the values
Details: plasmid DNA, GFP cells / total cells
Procedure, shortened: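 MCF7 cells in DMEM with fetal bovine serum were transfected in 96-well format. Read-out was the percentage of GFP-fluorescent cells among total cells counted by Hoechst nuclear stain. Lipofectamine2000 served as positive control.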

SMILES | Absolute DNA transfection efficiency in MCF7 cells [%]
CCCCCCCCCCCNc1nc(NCCCN2CCN(C)CC2)nc(SCCCCCCCCC)n1 [Compound S9N11D9] | 27.3
CCCCCCCCCCCNc1nc(NCC2CCN(C)CC2)nc(SCCCCCCCCC)n1 [Compound S9N11D10] | 36.6
CCCCCCCCCCCCNc1nc(NCCN2CCCC2)nc(SCCCCCCCCC)n1 [Compound S9N12D3] | 27.5
CCCCCCCCCCCCNc1nc(NCCN2CCN(C)CC2)nc(SCCCCCCCCC)n1 [Compound S9N12D5] | 13.7
CCCCCCCCCCCCNc1nc(NCCCN(C)C)nc(SCCCCCCCCC)n1 [Compound S9N12D6] | 21.8

System: MCF7 cells
Assay: Transfection of MCF7 cell line, mRNA vectors
Type: cell-based
Details: 50 ng EGFP mRNA per well
Procedure, shortened: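 MCF7 cells in DMEM with fetal bovine serum were transfected with 50 ng EGFP mRNA per well. Read-out was the percentage of GFP-positive cells among total Hoechst-stained nuclei, with Lipofectamine2000 as positive control.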

SMILES | Absolute mRNA transfection efficiency in MCF7 cells [%]
CCCCCCCCCCCNc1nc(NCCCN2CCN(C)CC2)nc(SCCCCCCCCC)n1 [Compound S9N11D9] | 11.8
CCCCCCCCCCCNc1nc(NCC2CCN(C)CC2)nc(SCCCCCCCCC)n1 [Compound S9N11D10] | 20.2
CCCCCCCCCCCCNc1nc(NCCN2CCCC2)nc(SCCCCCCCCC)n1 [Compound S9N12D3] | 15.9
CCCCCCCCCCCCNc1nc(NCCN2CCN(C)CC2)nc(SCCCCCCCCC)n1 [Compound S9N12D5] | 16.6
CCCCCCCCCCCCNc1nc(NCCCN(C)C)nc(SCCCCCCCCC)n1 [Compound S9N12D6] | 22.4

System: embryonic stem cells (hESC2)
Assay: Screening as DNA vectors in embryonic stem cells, flow cytometry
Type: cell-based
Details: 75 ng plasmid DNA, 48 hours after transfection, flow cytometer
From the text: (§1) Cell line: embryonic stem cells (hESC2, cultured according to reported methods: Stem Cells, 2005, 23, 544-549)
(§2) Medium: mTeSR1 (STEMCELL)
(§3) Mode of screening: cell transfection on 96-well plates
(§4) Detection (readout): percentage of the number of GFP fluorescent cells relative to the total number of cells. Lipofectamine Stem was used as the positive control.
Method: an 8-channel pipette was used for sample addition. The contents shown were for a single well of a 96-well flat plate.
1. Stem cells were cultured to 3-5×10^4 cells per well in a 96-well plate treated with matrigel.
2. The compound (0.01 mmol) prepared in Example 1 was dissolved in 1 mL of anhydrous ethanol. After ultrasonically dissolved, 10 μL of the resultant amino lipid solution in ethanol was taken and mixed with 5 μL of DOPE solution in ethanol ([…]). The obtained mixture was then added with 35 μL of 0.2 M sodium acetate buffer (pH 5.6), and vortexed at a constant rotating speed for 30 s. Then, 4 μL was taken from the obtained product and added to 46 μL of 0.02 M sodium acetate buffer (pH 5.6), and vortexed at a constant rotating speed for 30 s to form a liposome solution. 5 μL of this liposome solution was mixed with 75 ng of plasmid DNA (pSin-EGFP-IRES-Puro) dissolved in 5 μL of 0.02 M sodium acetate buffer, and allowed to stay at room temperature for 30 min to form a lipid/DNA transfection complex.
3. 10 μL of the lipid/DNA transfection complex was incubated at room temperature for 30 min, followed by addition of 90 μL mTeSR1 medium was added and mixing with a pipette. 100 μL of the mixture was added to separate wells of a 96-well culture plate and placed in an incubator containing 5% CO2 at 37° C.
4. 48 hours after transfection, the cells were digested with 0.05% Trypsin-EDTA. The cells were resuspended in a PBS buffer and filtered. The cell suspension was placed in a flow cytometer and the number of GFP-expressing cells in no less than 2000 cells was measured so as to obtain the absolute efficiency of cell transfection. The relative efficiency of cell transfection was obtained by comparing the cell transfection efficiency with the positive control Lipofectamine Stem.

SMILES | Absolute DNA transfection efficiency in embryonic stem cells [%]
CCCCCCCCCCCNc1nc(NCCCN2CCN(C)CC2)nc(SCCCCCCCCC)n1 [Compound S9N11D9] | 6.6
CCCCCCCCCCCNc1nc(NCC2CCN(C)CC2)nc(SCCCCCCCCC)n1 [Compound S9N11D10] | 2.2
CCCCCCCCCCCCNc1nc(NCCN2CCCC2)nc(SCCCCCCCCC)n1 [Compound S9N12D3] | 2.3
CCCCCCCCCCCCNc1nc(NCCN2CCN(C)CC2)nc(SCCCCCCCCC)n1 [Compound S9N12D5] | 2.5
CCCCCCCCCCCCNc1nc(NCCCN(C)C)nc(SCCCCCCCCC)n1 [Compound S9N12D6] | 1.9

System: embryonic stem cells (hESC2)
Assay: Screening as mRNA vectors in embryonic stem cells
Type: cell-based
Details: 50 ng EGFP mRNA per well
Procedure: as §1, §2
Mode of screening: cell transfection on 96-well plate
as §4
Method: the experimental method was basically the same with Example 10, and the mass of EGFP mRNA for transfection was 50 ng per well.

SMILES | Absolute mRNA transfection efficiency in embryonic stem cells [%]
CCCCCCCCCCCNc1nc(NCCCN2CCN(C)CC2)nc(SCCCCCCCCC)n1 [Compound S9N11D9] | 2.9
CCCCCCCCCCCNc1nc(NCC2CCN(C)CC2)nc(SCCCCCCCCC)n1 [Compound S9N11D10] | 2.6
CCCCCCCCCCCCNc1nc(NCCN2CCCC2)nc(SCCCCCCCCC)n1 [Compound S9N12D3] | 4.6
CCCCCCCCCCCCNc1nc(NCCN2CCN(C)CC2)nc(SCCCCCCCCC)n1 [Compound S9N12D5] | 10.5
CCCCCCCCCCCCNc1nc(NCCCN(C)C)nc(SCCCCCCCCC)n1 [Compound S9N12D6] | 6.1

System: cardiomyocytes
Assay: Screening as DNA vectors in cardiomyocytes
Type: cell-based
Set-up: concentration or dose not given beside the values
Details: method as Example 4
Procedure: Cell line: cardiomyocytes (obtained from induced differentiation of hESC according to reported methods: J. Mol. Cell. Cardiol. 2011, 51, 288-298)
(§5) Medium: DMEM supplemented with 10% fetal bovine serum (Invitrogen)
as §3
(§6) Detection (readout): percentage of the number of GFP fluorescent cells relative to the total number of cells (the total number of cells was determined using nucleus dye Hoechst). Lipofectamine Stem (Invitrogen) was used as the positive control, according to the manufacturer's instructions.
Method: the experimental method was basically the same with Example 4.

SMILES | Absolute DNA transfection efficiency in cardiomyocytes [%]
CCCCCCCCCCCNc1nc(NCCCN2CCN(C)CC2)nc(SCCCCCCCCC)n1 [Compound S9N11D9] | 1.1
CCCCCCCCCCCNc1nc(NCC2CCN(C)CC2)nc(SCCCCCCCCC)n1 [Compound S9N11D10] | 2.7
CCCCCCCCCCCCNc1nc(NCCN2CCCC2)nc(SCCCCCCCCC)n1 [Compound S9N12D3] | 1.1
CCCCCCCCCCCCNc1nc(NCCN2CCN(C)CC2)nc(SCCCCCCCCC)n1 [Compound S9N12D5] | 4.0
CCCCCCCCCCCCNc1nc(NCCCN(C)C)nc(SCCCCCCCCC)n1 [Compound S9N12D6] | 1.7

System: cardiomyocytes
Assay: Screening as mRNA vectors in cardiomyocytes
Type: cell-based
Details: 50 ng EGFP mRNA per well
Procedure: Cell line: cardiomyocytes (obtained from induced differentiation of hESC according to reported methods: J Mol. Cell. Cardiol. 2011, 51, 288-298)
as §5, §3, §6
Method: the experimental method was basically the same with Example 4, and the mass of EGFP mRNA for transfection was 50 ng per well.

SMILES | Absolute mRNA transfection efficiency in cardiomyocytes [%]
CCCCCCCCCCCNc1nc(NCCCN2CCN(C)CC2)nc(SCCCCCCCCC)n1 [Compound S9N11D9] | 45.4
CCCCCCCCCCCNc1nc(NCC2CCN(C)CC2)nc(SCCCCCCCCC)n1 [Compound S9N11D10] | 45.3
CCCCCCCCCCCCNc1nc(NCCN2CCCC2)nc(SCCCCCCCCC)n1 [Compound S9N12D3] | 29.2
CCCCCCCCCCCCNc1nc(NCCN2CCN(C)CC2)nc(SCCCCCCCCC)n1 [Compound S9N12D5] | 25.5
CCCCCCCCCCCCNc1nc(NCCCN(C)C)nc(SCCCCCCCCC)n1 [Compound S9N12D6] | 5.3
